According to EP4745137A1 (Gluetacs Therapeutics (Shanghai) Co., Ltd., priority 2023, dated 2025):

Columns and labels:
Assay type in all cases: cell-based
Settings in all cases: 24 hours of compound treatment
GSPT1 = target: T1, GSPT1 (Homo sapiens, UniProt P15170+Q96SW2); assay: Western-blot assay of substrate protein degradation in hPBMCs, GSPT1
T1 construct: endogenous in cells; host or cells: hPBMCs (Milecell Biotechnologies)
Procedure: (§1) After 24 hours of compounds treatment, cells were harvested and lysed in RIPA protein lysate containing protease inhibitors on ice for 30 min, followed by centrifugation. The supernatant was aspirated as the extracted total cell protein. The protein concentration of the supernatant was determined using the conventional BCA (Bicinchoninic Acid) assay. • (2) To the collected supernatant, 5X SDS sample loading buffer was added, followed by denaturation at 95°C for 5 minutes. The denatured samples were then separated by SDS-PAGE electrophoresis on a polyacrylamide gel, transferred onto a nitrocellulose membrane (0.45 µm NC membrane), blocked with blocking buffer at room temperature for 1 hour, and subjected to antibody incubation and development procedures according to the antibody manufacturer's instructions (Cell Signaling Technology Company). […]
(§2) Target protein remaining (%) refers to the percentage of target protein remaining in cells after treatment with protein degrader compounds.
(§3) Calculation method for target protein remaining (%): Use ImageJ software to measure grayscale values of Western blot bands from drug (protein degrader)-treated samples. The grayscale value of drug-treated bands is divided by that of internal control protein bands, and the resulting quotient is normalized to obtain the relative percentage of remaining target protein after protein degrader treatment. Target protein degradation rate(%) = 1−target protein remaining(%). [formula]

IKZF2 = target: T2, IKZF2 (Homo sapiens, UniProt Q96SW2+Q9UKS7); assay: Western-blot assay of substrate protein degradation in hPBMCs, IKZF2
T2 construct: endogenous in cells; host or cells: hPBMCs (Milecell Biotechnologies)
Procedure: as §1, §2, §3

CK1α = target: T3, CK1α (Homo sapiens, UniProt P48729+Q96SW2); assay: Western-blot assay of substrate protein degradation in hPBMCs, CK1α
T3 construct: endogenous in cells; host or cells: hPBMCs (Milecell Biotechnologies)
Procedure: as §1, §2, §3

IKZF3 = target: T4, IKZF3 (Homo sapiens, UniProt Q96SW2+Q9UKT9); assay: Western-blot assay of substrate protein degradation in hPBMCs, IKZF3
T4 construct: endogenous in cells; host or cells: hPBMCs (Milecell Biotechnologies)
Procedure: as §1, §2, §3

WEE1 = target: T5, WEE1 (Homo sapiens, UniProt P30291+Q96SW2); assay: Western-blot assay of substrate protein degradation in hPBMCs, WEE1
T5 construct: endogenous in cells; host or cells: hPBMCs (Milecell Biotechnologies)
Procedure: as §1, §2, §3

IKZF1 = target: T6, IKZF1 (Homo sapiens, UniProt Q13422+Q96SW2); assay: Western-blot assay of substrate protein degradation in hPBMCs, IKZF1
T6 construct: endogenous in cells; host or cells: hPBMCs (Milecell Biotechnologies)
Procedure: as §1, §2, §3

[1] = compounds tested at 50 nM and 500 nM (concentration of the table not stated)
[2] = 50 nM and 500 nM tested (concentration behind the class not stated)

T4 sequence (Q9UKT9 whole entry): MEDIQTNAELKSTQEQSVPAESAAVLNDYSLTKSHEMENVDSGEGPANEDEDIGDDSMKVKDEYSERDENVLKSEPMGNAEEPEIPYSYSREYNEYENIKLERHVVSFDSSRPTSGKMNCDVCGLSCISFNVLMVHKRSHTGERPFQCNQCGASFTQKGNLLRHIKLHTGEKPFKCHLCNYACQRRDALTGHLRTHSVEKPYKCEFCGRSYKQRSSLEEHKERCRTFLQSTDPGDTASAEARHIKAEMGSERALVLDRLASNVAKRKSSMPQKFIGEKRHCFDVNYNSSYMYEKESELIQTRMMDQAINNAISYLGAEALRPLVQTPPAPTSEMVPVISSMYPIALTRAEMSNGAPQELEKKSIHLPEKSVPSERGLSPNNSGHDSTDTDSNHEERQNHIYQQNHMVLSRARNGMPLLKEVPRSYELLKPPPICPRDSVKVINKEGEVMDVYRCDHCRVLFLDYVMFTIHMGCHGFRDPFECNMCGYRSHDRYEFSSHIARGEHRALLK
T4 sequence (Q96SW2 whole entry): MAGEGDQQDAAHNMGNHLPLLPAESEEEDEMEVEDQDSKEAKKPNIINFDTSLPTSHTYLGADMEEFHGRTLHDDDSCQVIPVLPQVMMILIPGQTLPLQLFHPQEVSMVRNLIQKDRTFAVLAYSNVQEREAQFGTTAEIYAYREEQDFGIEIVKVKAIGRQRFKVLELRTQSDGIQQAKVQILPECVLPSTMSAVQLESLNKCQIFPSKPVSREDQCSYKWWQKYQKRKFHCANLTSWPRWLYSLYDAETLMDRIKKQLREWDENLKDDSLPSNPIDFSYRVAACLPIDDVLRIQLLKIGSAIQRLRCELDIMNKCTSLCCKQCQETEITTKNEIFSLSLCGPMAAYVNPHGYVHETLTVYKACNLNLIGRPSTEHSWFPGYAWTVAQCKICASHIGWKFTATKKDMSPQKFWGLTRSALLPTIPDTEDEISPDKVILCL
T4 sequence (Q16531 whole entry partner): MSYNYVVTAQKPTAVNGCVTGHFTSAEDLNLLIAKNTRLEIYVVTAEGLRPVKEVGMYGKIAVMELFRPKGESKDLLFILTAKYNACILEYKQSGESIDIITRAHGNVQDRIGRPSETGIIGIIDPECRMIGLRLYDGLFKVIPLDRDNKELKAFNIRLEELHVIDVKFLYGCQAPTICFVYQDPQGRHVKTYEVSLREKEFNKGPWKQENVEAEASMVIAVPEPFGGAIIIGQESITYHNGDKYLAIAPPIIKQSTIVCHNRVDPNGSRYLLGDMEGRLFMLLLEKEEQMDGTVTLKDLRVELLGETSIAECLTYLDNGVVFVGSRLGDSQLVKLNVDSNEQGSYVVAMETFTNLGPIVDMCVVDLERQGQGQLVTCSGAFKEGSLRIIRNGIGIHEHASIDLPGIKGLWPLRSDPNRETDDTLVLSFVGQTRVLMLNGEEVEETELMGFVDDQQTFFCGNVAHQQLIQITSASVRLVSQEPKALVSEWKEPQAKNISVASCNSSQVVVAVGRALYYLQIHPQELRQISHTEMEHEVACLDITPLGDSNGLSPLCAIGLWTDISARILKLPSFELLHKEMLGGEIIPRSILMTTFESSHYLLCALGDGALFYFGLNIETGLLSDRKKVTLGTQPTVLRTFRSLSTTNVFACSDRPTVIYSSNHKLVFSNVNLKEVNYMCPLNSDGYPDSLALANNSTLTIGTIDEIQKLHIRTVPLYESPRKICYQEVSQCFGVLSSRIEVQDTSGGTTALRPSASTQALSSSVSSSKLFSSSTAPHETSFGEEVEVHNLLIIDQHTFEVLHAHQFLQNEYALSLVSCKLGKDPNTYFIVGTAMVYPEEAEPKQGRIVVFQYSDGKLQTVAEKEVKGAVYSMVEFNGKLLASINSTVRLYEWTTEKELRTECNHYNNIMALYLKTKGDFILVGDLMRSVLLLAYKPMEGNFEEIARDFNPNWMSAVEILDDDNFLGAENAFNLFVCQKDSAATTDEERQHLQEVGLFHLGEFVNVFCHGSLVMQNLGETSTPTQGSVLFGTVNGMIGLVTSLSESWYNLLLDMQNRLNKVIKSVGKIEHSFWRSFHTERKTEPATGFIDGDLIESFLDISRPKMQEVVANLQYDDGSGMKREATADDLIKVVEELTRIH
T3 sequence (P48729 whole entry): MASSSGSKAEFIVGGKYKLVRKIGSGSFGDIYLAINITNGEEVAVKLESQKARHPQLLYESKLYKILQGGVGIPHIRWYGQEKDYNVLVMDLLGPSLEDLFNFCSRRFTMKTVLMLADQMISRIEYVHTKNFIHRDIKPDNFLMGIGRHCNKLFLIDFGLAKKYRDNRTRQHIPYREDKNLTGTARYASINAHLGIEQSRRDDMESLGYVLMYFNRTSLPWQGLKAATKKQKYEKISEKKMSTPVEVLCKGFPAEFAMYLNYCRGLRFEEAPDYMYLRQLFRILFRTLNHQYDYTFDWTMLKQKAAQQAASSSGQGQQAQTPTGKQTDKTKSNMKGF
T3 sequence (Q96SW2 whole entry): as the sequence (Q96SW2 whole entry) above
T3 sequence (Q16531 whole entry partner): as the sequence (Q16531 whole entry partner) above
T5 sequence (P30291 whole entry): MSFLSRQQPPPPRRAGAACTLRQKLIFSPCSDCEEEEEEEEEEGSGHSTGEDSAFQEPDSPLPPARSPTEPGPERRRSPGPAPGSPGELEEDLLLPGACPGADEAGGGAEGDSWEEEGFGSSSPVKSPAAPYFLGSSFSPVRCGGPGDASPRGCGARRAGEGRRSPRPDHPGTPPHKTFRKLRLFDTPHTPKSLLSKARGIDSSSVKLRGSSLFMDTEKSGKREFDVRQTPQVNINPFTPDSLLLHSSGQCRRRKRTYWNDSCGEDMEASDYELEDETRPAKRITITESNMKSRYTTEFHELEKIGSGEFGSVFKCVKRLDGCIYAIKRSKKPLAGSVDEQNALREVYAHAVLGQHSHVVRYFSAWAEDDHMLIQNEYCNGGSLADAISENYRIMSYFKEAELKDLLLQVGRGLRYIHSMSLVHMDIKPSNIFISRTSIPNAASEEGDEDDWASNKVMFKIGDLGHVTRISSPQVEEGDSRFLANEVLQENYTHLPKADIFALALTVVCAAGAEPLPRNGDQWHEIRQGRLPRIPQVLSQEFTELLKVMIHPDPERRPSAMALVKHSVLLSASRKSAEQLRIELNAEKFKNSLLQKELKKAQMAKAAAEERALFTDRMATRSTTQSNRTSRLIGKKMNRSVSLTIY
T5 sequence (Q96SW2 whole entry): as the sequence (Q96SW2 whole entry) above
T5 sequence (Q16531 whole entry partner): as the sequence (Q16531 whole entry partner) above
T1 sequence (P15170 whole entry): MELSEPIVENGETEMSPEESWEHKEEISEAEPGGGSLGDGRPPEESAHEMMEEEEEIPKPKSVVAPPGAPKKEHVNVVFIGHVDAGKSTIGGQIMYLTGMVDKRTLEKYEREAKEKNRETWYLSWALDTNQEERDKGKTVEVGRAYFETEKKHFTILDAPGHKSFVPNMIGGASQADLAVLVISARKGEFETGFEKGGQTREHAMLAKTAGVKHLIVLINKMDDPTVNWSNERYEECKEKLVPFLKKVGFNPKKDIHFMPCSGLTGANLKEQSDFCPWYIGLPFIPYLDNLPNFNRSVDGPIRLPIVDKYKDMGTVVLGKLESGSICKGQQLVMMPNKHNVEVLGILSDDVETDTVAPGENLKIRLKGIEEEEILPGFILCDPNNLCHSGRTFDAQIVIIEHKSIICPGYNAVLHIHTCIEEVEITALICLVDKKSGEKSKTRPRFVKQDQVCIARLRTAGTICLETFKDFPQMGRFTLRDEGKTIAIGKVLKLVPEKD
T1 sequence (Q96SW2 whole entry): as the sequence (Q96SW2 whole entry) above
T1 sequence (Q16531 whole entry partner): as the sequence (Q16531 whole entry partner) above
T6 sequence (Q13422 whole entry): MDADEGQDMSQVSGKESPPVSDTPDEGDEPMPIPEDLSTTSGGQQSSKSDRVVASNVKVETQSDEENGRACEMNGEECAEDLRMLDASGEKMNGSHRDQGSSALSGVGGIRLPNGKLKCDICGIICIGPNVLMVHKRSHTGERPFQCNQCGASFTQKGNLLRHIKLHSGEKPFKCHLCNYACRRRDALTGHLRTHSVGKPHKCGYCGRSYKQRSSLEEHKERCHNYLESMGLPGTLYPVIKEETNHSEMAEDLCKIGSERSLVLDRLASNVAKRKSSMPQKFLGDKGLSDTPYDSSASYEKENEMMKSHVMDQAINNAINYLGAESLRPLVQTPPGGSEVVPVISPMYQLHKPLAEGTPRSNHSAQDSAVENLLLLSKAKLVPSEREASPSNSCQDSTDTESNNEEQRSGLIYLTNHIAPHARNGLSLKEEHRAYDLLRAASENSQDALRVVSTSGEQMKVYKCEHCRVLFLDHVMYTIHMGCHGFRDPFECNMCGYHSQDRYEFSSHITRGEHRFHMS
T6 sequence (Q96SW2 whole entry): as the sequence (Q96SW2 whole entry) above
T6 sequence (Q16531 whole entry partner): as the sequence (Q16531 whole entry partner) above

O=C1CCC(N2Cc3cc(CN4CCN(Cc5ccc(C67CC8CC(CC(C8)C6)C7)cc5)CC4)ccc3C2=O)C(=O)N1 (stereo not drawn) [GT-03026, 3-(5-((4-(4-((3r,5r,7r)-adamantan-1-yl)benzyl)piperazin-1-yl)methyl)-1-oxoisoindolin-2-yl)piperidine-2,6-dione]
GSPT1 substrate protein remaining % (GSPT1; [1]): A (0% ≤ substrate protein remaining % ≤ 80%) | IKZF2 substrate protein remaining % (IKZF2; [1]): A (0% ≤ substrate protein remaining % ≤ 80%) | CK1a substrate protein remaining % (CK1α; [1]): A (0% ≤ substrate protein remaining % ≤ 80%) | IKZF3 substrate protein remaining % (IKZF3; [1]): A (0% ≤ substrate protein remaining % ≤ 80%) | Weel substrate protein remaining % (WEE1; [1]): B (80%< substrate protein remaining %≤ 100%) | IKZF 1 substrate protein remaining % (IKZF1; [1]): A (0% ≤ substrate protein remaining % ≤ 80%)

O=C1CCC(N2Cc3cc(CN4CCn5c(nnc5C(F)(F)F)C4)ccc3C2=O)C(=O)N1 (stereo not drawn) [GT-04199, 3-(1-oxo-5-((3-(trifluoromethyl)-5,6-dihydro-[1,2,4]triazolo[4,3-a]pyrazin-7(8H)-yl)methyl)isoindolin-2-yl)piperidine-2,6-dione]
GSPT1 substrate protein remaining % (GSPT1; [1]): B (80%< substrate protein remaining %≤ 100%) | IKZF2 substrate protein remaining % (IKZF2; [1]): A (0% ≤ substrate protein remaining % ≤ 80%) | CK1a substrate protein remaining % (CK1α; [1]): B (80%< substrate protein remaining %≤ 100%) | IKZF3 substrate protein remaining % (IKZF3; [1]): A (0% ≤ substrate protein remaining % ≤ 80%) | Weel substrate protein remaining % (WEE1; [1]): A (0% ≤ substrate protein remaining % ≤ 80%) | IKZF 1 substrate protein remaining % (IKZF1; [1]): B (80%< substrate protein remaining %≤ 100%)

O=C1CCC(N2Cc3c(CN4CCC(c5noc6cc(F)ccc56)CC4)cccc3C2=O)C(=O)N1 (stereo not drawn) [GT-04764, 3-(4-((4-(6-fluorobenzo[d]isoxazol-3-yl)piperidin-1-yl)methyl)-1-oxoisoindolin-2-yl)piperidine-2,6-dione]
GSPT1 substrate protein remaining % (GSPT1; [1]): A (0% ≤ substrate protein remaining % ≤ 80%) | IKZF2 substrate protein remaining % (IKZF2; [1]): B (80%< substrate protein remaining %≤ 100%) | CK1a substrate protein remaining % (CK1α; [1]): A (0% ≤ substrate protein remaining % ≤ 80%) | IKZF3 substrate protein remaining % (IKZF3; [1]): B (80%< substrate protein remaining %≤ 100%) | Weel substrate protein remaining % (WEE1; [1]): A (0% ≤ substrate protein remaining % ≤ 80%) | IKZF 1 substrate protein remaining % (IKZF1; [1]): B (80%< substrate protein remaining %≤ 100%)

O=C1CCC(N2C(=O)c3cccc(CN4CCC(c5noc6cc(F)ccc56)CC4)c3C2=O)C(=O)N1 (stereo not drawn) [GT-04770, 2-(2,6-dioxopiperidin-3-yl)-4-((4-(6-fluorobenzo[d]isoxazol-3-yl)piperidin-1-yl)methyl)isoindoline-1,3-dione]
GSPT1 substrate protein remaining % (GSPT1; [1]): A (0% ≤ substrate protein remaining % ≤ 80%) | IKZF2 substrate protein remaining % (IKZF2; [1]): B (80%< substrate protein remaining %≤ 100%) | CK1a substrate protein remaining % (CK1α; [1]): B (80%< substrate protein remaining %≤ 100%) | IKZF3 substrate protein remaining % (IKZF3; [1]): B (80%< substrate protein remaining %≤ 100%) | Weel substrate protein remaining % (WEE1; [1]): B (80%< substrate protein remaining %≤ 100%) | IKZF 1 substrate protein remaining % (IKZF1; [1]): B (80%< substrate protein remaining %≤ 100%)

O=C1CCC(N2C(=O)c3ccc(CN4CCC(c5noc6cc(F)ccc56)CC4)cc3C2=O)C(=O)N1 (stereo not drawn) [GT-04771, 2-(2,6-dioxopiperidin-3-yl)-5-((4-(6-fluorobenzo[d]isoxazol-3-yl)piperidin-1-yl)methyl)isoindoline-1,3-dione]
GSPT1 substrate protein remaining % (GSPT1; [1]): A (0% ≤ substrate protein remaining % ≤ 80%) | IKZF2 substrate protein remaining % (IKZF2; [1]): B (80%< substrate protein remaining %≤ 100%) | CK1a substrate protein remaining % (CK1α; [1]): A (0% ≤ substrate protein remaining % ≤ 80%) | IKZF3 substrate protein remaining % (IKZF3; [1]): B (80%< substrate protein remaining %≤ 100%) | Weel substrate protein remaining % (WEE1; [1]): A (0% ≤ substrate protein remaining % ≤ 80%) | IKZF 1 substrate protein remaining % (IKZF1; [1]): B (80%< substrate protein remaining %≤ 100%)

O=C1CCC(N2Cc3c(CN4CCN(c5cccc6sccc56)CC4)cccc3C2=O)C(=O)N1 (stereo not drawn) [GT-04914, 3-(4-((4-(benzo[b]thiophen-4-yl)piperazin-1-yl)methyl)-1-oxoisoindolin-2-yl)piperidine-2,6-dione]
GSPT1 substrate protein remaining % (GSPT1; [1]): A (0% ≤ substrate protein remaining % ≤ 80%) | IKZF2 substrate protein remaining % (IKZF2; [1]): B (80%< substrate protein remaining %≤ 100%) | CK1a substrate protein remaining % (CK1α; [1]): A (0% ≤ substrate protein remaining % ≤ 80%) | IKZF3 substrate protein remaining % (IKZF3; [1]): B (80%< substrate protein remaining %≤ 100%) | Weel substrate protein remaining % (WEE1; [1]): A (0% ≤ substrate protein remaining % ≤ 80%) | IKZF 1 substrate protein remaining % (IKZF1; [1]): A (0% ≤ substrate protein remaining % ≤ 80%)

O=C1CCC(N2Cc3c(CN4CCn5c(nnc5C(F)(F)F)C4)cccc3C2=O)C(=O)N1 (stereo not drawn) [GT-04920, 3-(1-oxo-4-((3-(trifluoromethyl)-5,6-dihydro-[1,2,4]triazolo[4,3-a]pyrazin-7(8H)-yl)methyl)isoindolin-2-yl)piperidine-2,6-dione]
GSPT1 substrate protein remaining % (GSPT1; [1]): A (0% ≤ substrate protein remaining % ≤ 80%) | IKZF2 substrate protein remaining % (IKZF2; [1]): A (0% ≤ substrate protein remaining % ≤ 80%) | CK1a substrate protein remaining % (CK1α; [1]): B (80%< substrate protein remaining %≤ 100%) | IKZF3 substrate protein remaining % (IKZF3; [1]): A (0% ≤ substrate protein remaining % ≤ 80%) | Weel substrate protein remaining % (WEE1; [1]): A (0% ≤ substrate protein remaining % ≤ 80%) | IKZF 1 substrate protein remaining % (IKZF1; [1]): A (0% ≤ substrate protein remaining % ≤ 80%)

O=C1CCC(N2C(=O)c3ccc(CN4CCn5c(nnc5C(F)(F)F)C4)cc3C2=O)C(=O)N1 (stereo not drawn) [GT-04921, 2-(2,6-dioxopiperidin-3-yl)-5-((3-(trifluoromethyl)-5,6-dihydro-[1,2,4]triazolo[4,3-a]pyrazin-7(8H)-yl)methyl)isoindoline-1,3-dione]
GSPT1 substrate protein remaining % (GSPT1; [1]): B (80%< substrate protein remaining %≤ 100%) | IKZF2 substrate protein remaining % (IKZF2; [1]): B (80%< substrate protein remaining %≤ 100%) | CK1a substrate protein remaining % (CK1α; [1]): B (80%< substrate protein remaining %≤ 100%) | IKZF3 substrate protein remaining % (IKZF3; [1]): B (80%< substrate protein remaining %≤ 100%) | Weel substrate protein remaining % (WEE1; [1]): A (0% ≤ substrate protein remaining % ≤ 80%) | IKZF 1 substrate protein remaining % (IKZF1; [1]): A (0% ≤ substrate protein remaining % ≤ 80%)

Cc1ccsc1N1CCN(Cc2ccc3c(c2)C(=O)N(C2CCC(=O)NC2=O)C3=O)CC1 (stereo not drawn) [GT-06214, 2-(2,6-dioxopiperidin-3-yl)-5-((4-(3-methylthiophen-2-yl)piperazin-1-yl)methyl)isoindoline-1,3-dione]
GSPT1 substrate protein remaining % (GSPT1; [2]): A (0% ≤ substrate protein remaining % ≤ 80%) | IKZF2 substrate protein remaining % (IKZF2; [2]): A (0% ≤ substrate protein remaining % ≤ 80%) | CK1a substrate protein remaining % (CK1α; [2]): B (80%< substrate protein remaining %≤ 100%) | IKZF3 substrate protein remaining % (IKZF3; [2]): B (80%< substrate protein remaining %≤ 100%) | Weel substrate protein remaining % (WEE1; [2]): B (80%< substrate protein remaining %≤ 100%) | IKZF 1 substrate protein remaining % (IKZF1; [2]): B (80%< substrate protein remaining %≤ 100%)

Cc1cc(N2CCN(Cc3ccc4c(c3)C(=O)N(C3CCC(=O)NC3=O)C4=O)CC2)cs1 (stereo not drawn) [GT-06218, 2-(2,6-dioxopiperidin-3-yl)-5-((4-(5-methylthiophen-3-yl)piperazin-1-yl)methyl)isoindoline-1,3-dione]
GSPT1 substrate protein remaining % (GSPT1; [2]): A (0% ≤ substrate protein remaining % ≤ 80%) | IKZF2 substrate protein remaining % (IKZF2; [2]): B (80%< substrate protein remaining %≤ 100%) | CK1a substrate protein remaining % (CK1α; [2]): A (0% ≤ substrate protein remaining % ≤ 80%) | IKZF3 substrate protein remaining % (IKZF3; [2]): A (0% ≤ substrate protein remaining % ≤ 80%) | Weel substrate protein remaining % (WEE1; [2]): A (0% ≤ substrate protein remaining % ≤ 80%) | IKZF 1 substrate protein remaining % (IKZF1; [2]): B (80%< substrate protein remaining %≤ 100%)

O=C1CCC(N2C(=O)c3ccc(CN4CC=C(c5cccs5)CC4)cc3C2=O)C(=O)N1 (stereo not drawn) [GT-06219, 2-(2,6-dioxopiperidin-3-yl)-5-((4-(thiophen-2-yl)-3,6-dihydropyridin-1(2H)-yl)methyl)isoindoline-1,3-dione]
GSPT1 substrate protein remaining % (GSPT1; [2]): A (0% ≤ substrate protein remaining % ≤ 80%) | IKZF2 substrate protein remaining % (IKZF2; [2]): B (80%< substrate protein remaining %≤ 100%) | CK1a substrate protein remaining % (CK1α; [2]): A (0% ≤ substrate protein remaining % ≤ 80%) | IKZF3 substrate protein remaining % (IKZF3; [2]): A (0% ≤ substrate protein remaining % ≤ 80%) | Weel substrate protein remaining % (WEE1; [2]): A (0% ≤ substrate protein remaining % ≤ 80%) | IKZF 1 substrate protein remaining % (IKZF1; [2]): B (80%< substrate protein remaining %≤ 100%)

Cc1cscc1C1=CCN(Cc2ccc3c(c2)C(=O)N(C2CCC(=O)NC2=O)C3=O)CC1 (stereo not drawn) [GT-06221, 2-(2,6-dioxopiperidin-3-yl)-5-((4-(4-methylthiophen-3-yl)-3,6-dihydropyridin-1(2H)-yl)methyl)isoindoline-1,3-dione]
GSPT1 substrate protein remaining % (GSPT1; [2]): A (0% ≤ substrate protein remaining % ≤ 80%) | IKZF2 substrate protein remaining % (IKZF2; [2]): A (0% ≤ substrate protein remaining % ≤ 80%) | CK1a substrate protein remaining % (CK1α; [2]): A (0% ≤ substrate protein remaining % ≤ 80%) | IKZF3 substrate protein remaining % (IKZF3; [2]): A (0% ≤ substrate protein remaining % ≤ 80%) | Weel substrate protein remaining % (WEE1; [2]): A (0% ≤ substrate protein remaining % ≤ 80%) | IKZF 1 substrate protein remaining % (IKZF1; [2]): A (0% ≤ substrate protein remaining % ≤ 80%)
